Results from patent US20030187007A1, “Inhibitors of protein kinase for the treatment of disease” (priority 2001, published 2003).
Where a name gives a salt, the structure may show the parent alone.

Columns and labels:
Assay type in all cases: biochemical
[1] = molecular target: KDR (Homo sapiens, UniProt P35968); assay: Enzyme assay for  (KDR), IC50 determination; details: 50 nM KDR, 500 μM ATP
Experimental: Enzyme assays for IC50 determinations were performed in 96-well titer plates, in a total reaction volume of 50 μL. Each reaction contained 1.5 μL of appropriate dilutions of inhibitor, 50 mM Hepes, pH 7.4, 1 mM DTT, 10 mM magnesium chloride, 2 mM phospho-poly(E4Y) (Sigma Chemical Company), 500 μM unlabeled ATP, 0.0025 μM [^33P]ATP (Amersham Pharmacia Biotech), and 50 nM KDR. All components except KDR were added to the wells, and the reaction was started by the addition of the enzyme. The reactions were mixed and incubated at room temperature for 1 hr, after which the reactions were quenched by the addition of 50 μL of 8% phosphoric acid. At this point, 90 μL aliquots of the samples were applied to positively charged DEAE 96-well filter plates (Millipore Corporation MADENOB10). The plates were incubated for 30 min at room temperature. The samples were aspirated and the wells were washed 3 times with 200 μL of 0.5% phosphoric acid. To each well, 50 μL of scintillation cocktail was added and counted for 60 sec in a TopCount microplate scintillation counter (Packard Instrument Company). The concentration of a compound that inhibited the activity of KDR by 50% (IC50) was determined based its inhibition curve.

[2] = molecular target: CDK2 complexed with cyclin A (Homo sapiens, UniProt P24941); assay: Cyclin dependent kinase activity assay, phosphorylation of synthetic peptide PKTPKKAKKLRRR; details: 0.1 mM ATP, read-out: CDK 2 Activity*
Experimental: (§1) The assay of cyclin dependent kinase activity was determined by monitoring the phosphorylation of a synthetic peptide, PKTPKKAKKLRRR. The assay mixture contained 0.1 mM cold ATP, ^33P-γ-ATP (2000-4000 cpm/μL), 0.1 mM peptide, 1 mM DTT, and 10 mM MgCl2 in 100 mM HEPES buffer pH 7.4. The assay mixture, along with inhibitor and CDK enzyme (0.3-0.4 U/mL; either CDK5 complexed with p25, CDK2 complexed with complexed with cyclin A), was mixed together in a microtiter plate in a final volume of 40 μL, sealed and incubated for 2 hours at 30° C. Following incubation, a 15 μL aliquot was added to a Whatman P81 filtration plate containing 100 μL 0.5% phosphoric acid. This mixture was allowed to stand for 5 minutes prior to filtration on a vacuum manifold. The filter plate was washed with 5 successive additions of 300 μL 0.5% phosphoric acid. The filtration plate was air dried for 10 minutes before sealing the bottom. After addition of scintillation fluid to the sealed plate, phosphorylated peptide was quantified in a scintillation counter.

[3] = molecular target: CDK5 complexed with p25 (Homo sapiens, UniProt Q00535); assay: as above; details: CDK5 complexed with p25, 0.1 mM ATP; read-out: CDK 5 Activity*
Sequence of CDK5 complexed with p25 (Q00535 whole entry): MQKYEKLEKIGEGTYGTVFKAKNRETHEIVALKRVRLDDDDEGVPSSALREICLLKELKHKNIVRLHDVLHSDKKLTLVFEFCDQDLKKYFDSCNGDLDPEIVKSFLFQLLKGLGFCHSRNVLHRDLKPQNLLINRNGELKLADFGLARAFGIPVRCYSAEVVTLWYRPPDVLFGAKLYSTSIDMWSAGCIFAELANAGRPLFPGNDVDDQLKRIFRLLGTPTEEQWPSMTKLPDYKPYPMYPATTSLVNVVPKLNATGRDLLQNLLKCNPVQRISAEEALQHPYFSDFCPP
Sequence of CDK5 complexed with p25 (Q15078 99-307 partner limits assumed): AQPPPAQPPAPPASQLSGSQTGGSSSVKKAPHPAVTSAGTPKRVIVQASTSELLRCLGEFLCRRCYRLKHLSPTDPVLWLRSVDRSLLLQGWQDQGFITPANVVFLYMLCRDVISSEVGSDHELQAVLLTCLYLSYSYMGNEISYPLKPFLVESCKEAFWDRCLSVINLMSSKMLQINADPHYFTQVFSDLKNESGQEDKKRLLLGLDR
Experimental: as §1

Sequence of KDR (P35968 20-1356): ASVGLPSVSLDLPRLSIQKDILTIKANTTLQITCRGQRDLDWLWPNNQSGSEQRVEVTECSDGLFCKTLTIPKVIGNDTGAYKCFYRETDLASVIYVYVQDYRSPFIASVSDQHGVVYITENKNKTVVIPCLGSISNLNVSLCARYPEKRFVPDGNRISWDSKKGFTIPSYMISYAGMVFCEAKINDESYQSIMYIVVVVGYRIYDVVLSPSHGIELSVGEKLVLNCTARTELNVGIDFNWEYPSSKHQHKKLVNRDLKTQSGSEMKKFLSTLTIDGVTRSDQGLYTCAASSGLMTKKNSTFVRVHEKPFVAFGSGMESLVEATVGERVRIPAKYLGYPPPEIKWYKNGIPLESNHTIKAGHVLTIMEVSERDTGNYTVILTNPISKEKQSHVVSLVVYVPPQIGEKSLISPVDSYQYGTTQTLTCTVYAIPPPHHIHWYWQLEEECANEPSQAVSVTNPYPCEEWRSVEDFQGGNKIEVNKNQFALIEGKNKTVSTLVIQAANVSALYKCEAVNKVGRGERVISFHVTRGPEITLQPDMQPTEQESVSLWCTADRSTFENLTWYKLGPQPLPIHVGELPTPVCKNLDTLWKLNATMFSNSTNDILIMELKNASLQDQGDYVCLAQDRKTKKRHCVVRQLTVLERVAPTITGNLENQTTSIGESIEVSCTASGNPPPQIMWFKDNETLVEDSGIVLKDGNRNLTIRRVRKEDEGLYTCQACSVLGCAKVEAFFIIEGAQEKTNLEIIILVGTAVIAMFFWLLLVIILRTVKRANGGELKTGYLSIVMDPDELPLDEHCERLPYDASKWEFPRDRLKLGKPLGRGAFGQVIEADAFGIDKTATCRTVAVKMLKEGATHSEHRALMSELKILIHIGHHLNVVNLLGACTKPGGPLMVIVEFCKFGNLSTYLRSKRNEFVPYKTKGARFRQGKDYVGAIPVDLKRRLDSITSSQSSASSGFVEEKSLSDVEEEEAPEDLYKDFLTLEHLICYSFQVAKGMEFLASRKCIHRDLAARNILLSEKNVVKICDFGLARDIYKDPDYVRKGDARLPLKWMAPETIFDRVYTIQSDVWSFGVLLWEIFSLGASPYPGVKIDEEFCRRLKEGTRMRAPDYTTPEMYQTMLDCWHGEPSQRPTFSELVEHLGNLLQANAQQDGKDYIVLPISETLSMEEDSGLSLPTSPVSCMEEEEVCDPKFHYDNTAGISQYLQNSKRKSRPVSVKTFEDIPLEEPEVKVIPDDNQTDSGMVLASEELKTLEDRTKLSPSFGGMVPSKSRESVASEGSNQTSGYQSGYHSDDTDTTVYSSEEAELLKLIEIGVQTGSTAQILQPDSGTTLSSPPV

IC50 [1] [nM]	IC50 [2] [nM]	IC50 [3] [nM]	SMILES
< 1000			COc1cccc(CNc2cc(-c3cc(-c4ccc(O)cc4)ccc3O)nc(N)n2)c1 [Example 117, 3-[2-Amino-6-(3-methoxy-benzylamino)-pyrimidin-4-yl]-biphenyl-4,4′-diol]
1000 to 20000			Nc1nc(Nc2ccc(O)cc2F)cc(-c2cc(-c3ccc(O)cc3)ccc2O)n1 [Example 119, 3-[2-Amino-6-(2-fluoro-4-hydroxyphenylamino)-pyrimidin-4-yl]-biphenyl-4,4′-diol]
< 1000			Nc1nc(NCCc2ccccn2)cc(-c2cc(-c3ccc(O)cc3)ccc2O)n1 [Example 106, 3-[2-Amino-6-(2-pyridin-2-yl-ethylamino)-pyrimidin-4-yl]-biphenyl-4,4′-diol]
1000 to 20000			Nc1nc(-c2cc(-c3ccc(O)cc3)ccc2O)cc(N2CCN(Cc3ccccc3)CC2)n1 [Example 101, 3-[2-Amino-6-(4-benzyl-piperazin-1-yl)-pyrimidin-4-yl]-biphenyl-4,4′-diol]
1000 to 20000			Nc1nc(-c2cc(-c3ccc(O)cc3)ccc2O)cc(N2CCSCC2)n1 [Example 107, 3-(2-Amino-6-thiomorpholin-4-yl-pyrimidin-4-yl)-biphenyl-4,4′-diol]
< 1000			Nc1nc(N[C@@H](CO)c2ccccc2)cc(-c2cc(-c3ccc(O)cc3)ccc2O)n1 [Example 112, 3-[2-Amino-6-(2-hydroxy-1-phenyl-ethylamino)-pyrimidin-4-yl]-biphenyl-4,4′-diol]
< 1000			COc1ccc(CNc2cc(-c3cc(-c4ccc(O)cc4)ccc3O)nc(N)n2)cc1 [Example 118, 3-[2-Amino-6-(4-methoxy-benzylamino)-pyrimidin-4-yl]-biphenyl-4,4′-diol]
1000 to 20000			Nc1nc(N[C@@H](CO)Cc2c[nH]c3ccccc23)cc(-c2cc(-c3ccc(O)cc3)ccc2O)n1 [Example 96, 3-{2-Amino-6-[2-hydroxy-1R-(1H-indol-3-ylmethyl)-ethylamino]-pyrimidin-4-yl}-biphenyl-4,4′-diol]
1000 to 20000			Nc1nc(-c2ccsc2)cc(-c2cc(-c3ccc(O)cc3)ccc2O)n1 [Example 113, 3-(2-Amino-6-thiophen-3-yl-pyrimidin-4-yl)-biphenyl-4,4′-diol]
< 1000			Nc1nc(NCc2ccccc2F)cc(-c2cc(-c3ccc(O)cc3)ccc2O)n1 [Example 116]
< 1000			Nc1nc(Nc2cccc(Cl)c2)cc(-c2cc(-c3ccc(O)cc3)ccc2O)n1 [Example 109, 3-[2-Amino-6-(3-chloro-phenylamino)-pyrimidin-4-yl]-biphenyl-4,4′-diol]
1000 to 20000			Nc1nc(NCc2cccc(F)c2)cc(-c2cc(-c3ccc(O)cc3)ccc2O)n1 [Example 115, 3-[2-Amino-6-(3-fluoro-benzylamino)-pyrimidin-4-yl]-biphenyl-4,4′-diol]
< 1000			Nc1nc(NCCc2c[nH]c3ccccc23)cc(-c2cc(-c3ccc(O)cc3)ccc2O)n1 [Example 100, 3-{2-Amino-6-[2-(1-indol-3-yl)-ethylamino]-pyrimidin-4-yl} biphenyl-4,4′-diol]
1000 to 20000			Nc1cccc(-c2ccc(O)c(-c3ccnc(N)n3)c2)c1 [Example 94, 3′-Amino-3-(2-amino-pyrimidin-4-yl)-biphenyl-4-ol]
< 1000			Nc1nc(Nc2ccc(Cl)cc2)cc(-c2cc(-c3ccc(O)cc3)ccc2O)n1 [Example 110, 3-[2-Amino-6-(4-chloro-phenylamino)-pyrimidin-4-yl]-biphenyl-4,4′-diol]
< 1000			Nc1nc(NCc2ccccc2-c2ccccc2)cc(-c2cc(-c3ccc(O)cc3)ccc2O)n1 [Example 108, 3-{2-Amino-6-[(biphenyl-2-ylmethyl)-amino]-pyrimidin-4-yl}-biphenyl-4,4′-diol]
< 1000			Nc1nc(-c2ccc3[nH]ccc3c2)cc(-c2cc(-c3ccc(O)cc3)ccc2O)n1 [Example 114]
< 1000			COc1ccc(Nc2cc(-c3cc(-c4ccc(O)cc4)ccc3O)nc(N)n2)cc1 [Example 98, 3-[2-Amino-6-(4-methoxy-phenylamino)-pyrimidin-4-yl]-biphenyl-4,4′-diol]
1000 to 20000			CC(C)[C@@H](CO)Nc1cc(-c2cc(-c3ccc(O)cc3)ccc2O)nc(N)n1 [Example 103, 3-[2-Amino-6-(I -hydroxymethyl-2-methyl-propylamino)pyrimidin-4-yl]-biphenyl-4.4′-diol]

IC50 [1] [nM]	IC50 [2] [nM]	IC50 [3] [nM]	SMILES
< 1000			Nc1nc(N[C@H](CO)CSCc2ccccc2)cc(-c2cc(-c3ccc(O)cc3)ccc2O)n1 [Example 99, 3-[2-Amino-6-(2-benzylsulfanyl-1R-hydroxymethyl-ethylamino)-pyrimidin-4-yl]-biphenyl-4,4′-diol]
1000 to 20000			CC(C)(C)OC(=O)n1cccc1-c1ccc(O)c(-c2ccnc(N)n2)c1 [Example 95, 2-[3-(2-Amino-pyrimidin-4-yl)-4-hydroxy-phenyl]-pyrrole-1-carboxylic acid t-butyl ester]
	< 500	< 500	Nc1nc(-c2cc(-c3ccc(O)cc3)ccc2O)cc(N2CCCC(CO)C2)n1 (centres unmarked) [Example 82, 3-[2-Amino-6-(3-hydroxymethyl-piperidin-1-yl)-pyrimidin-4-yl]-biphenyl-4,4′-diol]
	< 500	< 500	NC(=S)N/N=C/c1cc(-c2ccc(O)cc2O)ccc1O [Example 27, 5-(2,4-Dihydroxyphenyl)salicylaldehyde thiosemicarbazone]
	2000 to 5000	500 to 2000	NC(=O)N/N=C/c1cc(-c2cccc(CO)c2)ccc1O [Example 9, 5-(3-Hydroxymethylphenyl)salicylaldehyde semicarbazone hydrochloride]
	< 500	< 500	NC(=S)N/N=C/c1cc(/C=C/C(=O)O)ccc1O [Example 38, 3-Formyl-4-hydroxycinnamic acid, thiosemicarbazone]
	2000 to 5000	500 to 2000	NC(=S)N/N=C/c1cc(-c2ccc(F)cc2)ccc1O [Example 16, 5-(4-Fluorophenyl)salicylaldehyde thiosemicarbazone]
	< 500	500 to 2000	Nc1ccc(-c2ccc(O)c(-c3ccnc(N)n3)c2)cn1 [Example 65, 4-(6-Amino-pyridin-3-yl)-2-(2-amino-pyrimidin-4-yl)-phenol]
	< 500	< 500	Nc1cc(-c2cc(-c3ccc(O)cc3)ccc2O)nc(N)n1 [Example 52, 3-(2,6-Diamino-pyrimidin-4-yl)-biphenyl-4,4′-diol]
	< 500	< 500	Nc1cccc(-c2cc(-c3ccnc(N)n3)ccc2O)n1 [Example 71, 2-(2-Aminopyridin-6-yl)-4-(2-aminopyrimidin-4-yl)-phenol]
	> 5000	< 500	NC(=S)N/N=C/c1cc(-c2ccc(C(=O)O)cc2)ccc1O [Example 19, 5-(4-Carboxyphenyl)salicylaldehyde thiosemicarbazone]
	2000 to 5000	> 5000	COC(=O)c1cccc(-c2ccc(O)c(/C=N/NC(N)=O)c2)c1 [Example 13, 5-(3-Methoxycarbonylphenyl)salicylaldehyde semicarbazone hydrochloride]
	2000 to 5000	2000 to 5000	COc1cccc(-c2ccc(O)c(/C=N/NC(N)=S)c2)c1 [Example 6, 5-(3-Methoxyphenyl)salicylaldehyde thiosemicarbazone]
	< 500	500 to 2000	NC(=S)N/N=C/c1cc(-c2ccsc2)ccc1O [Example 34, 5-(3-Thienyl)salicylaldehyde thiosemicarbazone]
	< 500	< 500	NC(=O)N/N=C/c1c(O)ccc2ccccc12 [Example 41, 2-[(2-Hydroxy-1-naphthyl)methylidene]hydrazine-1-carbamide hydrochloride]
	> 5000	2000 to 5000	N#Cc1cccc(-c2ccc(O)c(/C=N/NC(N)=S)c2)c1 [Example 7, 5-(3-Cyanophenyl)salicylaldehyde thiosemicarbazone]
	500 to 2000	2000 to 5000	NC(=S)N/N=C/c1cc(-c2ccc(O)cc2)c(O)cc1O [Example 28, 4-Hydroxy-5-(4-hydroxyphenyl)salicylaldehyde thiosemicarbazone]
	< 500	< 500	Nc1nc(NCC(O)CO)cc(-c2cc(-c3ccc(O)cc3)ccc2O)n1 (centres unmarked) [Example 56, 3-[2-Amino-6-(2,3-dihydroxy-propylamino)-pyrmidin-4-yl]-biphenyl-4,4′-diol]
